Reference: PubChem BioAssay AID328 (DTP/NCI, 2004)
Several values for one entry are separate records, joined by “and”; a condition that tells them apart may be missing. Identical values can stand only once. Toxic doses and inconclusive results are not listed.

System: BDF1 mice, P388 leukemia ip, median survival T/C
Experiment: NCI In Vivo Anticancer Drug Screen. Data for tumor model P388 Leukemia (intraperitoneal) in B6D2F1 (BDF1) mice
Conditions: endpoint: median survival time, higher = longer survival
In short: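 T/C = treated-group survival ÷ vehicle-control survival; tumour transplanted into mice before dosing.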

[1] = dose: 100.0 mg/kg/injection, schedule: Q04DX003 (ip), vehicle: saline with Tween-80
[2] = dose: 200.0 mg/kg/injection, schedule: Q04DX003 (ip), vehicle: saline with Tween-80
[3] = dose: 400.0 mg/kg/injection, schedule: Q04DX003 (ip), vehicle: saline with Tween-80
[4] = dose: 100.0 mg/kg/injection, schedule: Q01DX009 (ip), vehicle: saline
[5] = dose: 20.0 mg/kg/injection, schedule: Q04DX003 (ip), vehicle: Klucel (hydroxypropylcellulose) (HPC)
[6] = dose: 100.0 mg/kg/injection, schedule: Q04DX003 (ip), vehicle: Klucel (hydroxypropylcellulose) (HPC)
[7] = dose: 200.0 mg/kg/injection, schedule: Q04DX003 (ip), vehicle: Klucel (hydroxypropylcellulose) (HPC)
[8] = dose: 400.0 mg/kg/injection, schedule: Q04DX003 (ip), vehicle: Klucel (hydroxypropylcellulose) (HPC)
[9] = dose: 50.0 mg/kg/injection, schedule: Q01DX009 (ip), vehicle: saline with Tween-80
[10] = dose: 100.0 mg/kg/injection, schedule: Q01DX009 (ip), vehicle: saline with Tween-80
[11] = dose: 200.0 mg/kg/injection, schedule: Q01DX009 (ip), vehicle: saline with Tween-80
[12] = dose: 400.0 mg/kg/injection, schedule: Q01DX009 (ip), vehicle: saline with Tween-80

C=C(C)C1CC=C(/C=N/O)CC1 (stereo unspecified)
T/C [1]: 100 % of control | T/C [2]: 100 % of control | T/C [3]: 95 % of control

COc1ccc2c3c(ccc2c1)C1=C(C(=O)O)CC(=O)C1(C)CC3 (stereo unspecified)
T/C (dose: 100.0 mg/kg/injection, schedule: Q04DX003 (sc), vehicle: steriod suspending solution): 108 % of control | T/C (dose: 200.0 mg/kg/injection, schedule: Q04DX003 (sc), vehicle: steriod suspending solution): 100 % of control | T/C (dose: 400.0 mg/kg/injection, schedule: Q04DX003 (sc), vehicle: steriod suspending solution): 95 % of control

N=C(N)Sc1cc(O)ccc1O
T/C (dose: 50.0 mg/kg/injection, schedule: Q01DX009 (ip), vehicle: saline): 109 % of control | T/C (dose: 65.0 mg/kg/injection, schedule: Q01DX009 (ip), vehicle: saline): 115 % of control | T/C [4]: 115 % of control

CC1CC(OC(=O)CCN2CC2)CC(C)(C)C1 (stereo unspecified)
T/C (dose: 5.0 mg/kg/injection, schedule: Q04DX003 (ip), vehicle: Klucel (hydroxypropylcellulose) (HPC)): 95 % of control and 109 % of control | T/C (dose: 10.0 mg/kg/injection, schedule: Q04DX003 (ip), vehicle: Klucel (hydroxypropylcellulose) (HPC)): 104 % of control | T/C [5]: 100 % of control

O=C(O)/C(=C\c1ccccc1Br)c1ccc(C(F)(F)F)cc1[N+](=O)[O-]
T/C (dose: 75.0 mg/kg/injection, schedule: Q01DX001 (ip), vehicle: saline with Tween-80): 100 % of control | T/C (dose: 150.0 mg/kg/injection, schedule: Q01DX001 (ip), vehicle: saline with Tween-80): 95 % of control | T/C (dose: 300.0 mg/kg/injection, schedule: Q01DX001 (ip), vehicle: saline with Tween-80): 100 % of control

CCOC(=O)C[n+]1c(C)sc2ccccc21
T/C (dose: 50.0 mg/kg/injection, schedule: Q01DX005 (ip), vehicle: saline): 99 % of control | T/C (dose: 100.0 mg/kg/injection, schedule: Q01DX005 (ip), vehicle: saline): 92 % of control | T/C (dose: 200.0 mg/kg/injection, schedule: Q01DX005 (ip), vehicle: saline): 101 % of control

CC1(C)C=C(C(Br)c2cccc(Br)c2)C(=O)c2ccccc21 (stereo unspecified)
T/C (dose: 100.0 mg/kg/injection, schedule: Q01DX009 (ip), vehicle: Klucel (hydroxypropylcellulose) (HPC)): 120 % of control | T/C [6]: 90 % of control | T/C (dose: 200.0 mg/kg/injection, schedule: Q01DX009 (ip), vehicle: Klucel (hydroxypropylcellulose) (HPC)): 110 % of control | T/C [7]: 95 % of control | T/C (dose: 400.0 mg/kg/injection, schedule: Q01DX009 (ip), vehicle: Klucel (hydroxypropylcellulose) (HPC)): 110 % of control | T/C [8]: 109 % of control

Cc1ccc(CNc2ccc([N+](=O)[O-])cc2)cc1
T/C [9]: 104 % of control | T/C [10]: 90 % of control | T/C [11]: 104 % of control

CC(C)(C)COC(=O)CCN1CC1
T/C (dose: 2.5 mg/kg/injection, schedule: Q01DX009 (ip), vehicle: Klucel (hydroxypropylcellulose) (HPC)): 116 % of control | T/C (dose: 5.0 mg/kg/injection, schedule: Q01DX009 (ip), vehicle: Klucel (hydroxypropylcellulose) (HPC)): 111 % of control | T/C (dose: 10.0 mg/kg/injection, schedule: Q01DX009 (ip), vehicle: Klucel (hydroxypropylcellulose) (HPC)): 122 % of control | T/C (dose: 20.0 mg/kg/injection, schedule: Q01DX009 (ip), vehicle: Klucel (hydroxypropylcellulose) (HPC)): 100 % of control | T/C [5]: 95 % of control | T/C (dose: 40.0 mg/kg/injection, schedule: Q04DX003 (ip), vehicle: Klucel (hydroxypropylcellulose) (HPC)): 100 % of control | T/C (dose: 80.0 mg/kg/injection, schedule: Q04DX003 (ip), vehicle: Klucel (hydroxypropylcellulose) (HPC)): 109 % of control

O=Cc1ccc(N(c2ccccc2)c2ccccc2)cc1
T/C [6]: 111 % of control | T/C [7]: 111 % of control | T/C [8]: 94 % of control

C[N+](C)(C)Cc1ccccc1/C(=N\O)c1ccccc1
T/C (dose: 5.0 mg/kg/injection, schedule: Q01DX009 (ip), vehicle: saline): 109 % of control | T/C (dose: 10.0 mg/kg/injection, schedule: Q01DX009 (ip), vehicle: saline): 91 % of control

Cc1cccc(NC(=O)c2ccccc2Cl)c1C
T/C [1]: 109 % of control | T/C [2]: 90 % of control | T/C [3]: 90 % of control

OC1(CSc2ccccc2)CCCCC1
T/C [9]: 111 % of control | T/C [10]: 116 % of control and 119 % of control | T/C [11]: 116 % of control | T/C [12]: 122 % of control

N#CC1(c2ccc(Cl)cc2)CCC1
T/C [10]: 112 % of control | T/C [11]: 108 % of control

CS(=O)(=O)OCc1c(O)c2c(c(O)c1COS(C)(=O)=O)C(=O)C=CC2=O
T/C (dose: 3.12 mg/kg/injection, schedule: Q01DX009 (ip), vehicle: water): 103 % of control | T/C (dose: 3.12 mg/kg/injection, schedule: Q04DX003 (ip), vehicle: water): 102 % of control | T/C (dose: 6.25 mg/kg/injection, schedule: Q01DX009 (ip), vehicle: water): 114 % of control | T/C (dose: 6.25 mg/kg/injection, schedule: Q04DX003 (ip), vehicle: water): 102 % of control | T/C (dose: 12.5 mg/kg/injection, schedule: Q01DX009 (ip), vehicle: water): 106 % of control | T/C (dose: 12.5 mg/kg/injection, schedule: Q04DX003 (ip), vehicle: water): 93 % of control | T/C (dose: 25.0 mg/kg/injection, schedule: Q01DX009 (ip), vehicle: water): 107 % of control | T/C (dose: 25.0 mg/kg/injection, schedule: Q04DX003 (ip), vehicle: water): 101 % of control | T/C (dose: 50.0 mg/kg/injection, schedule: Q01DX009 (ip), vehicle: water): 116 % of control | T/C (dose: 50.0 mg/kg/injection, schedule: Q04DX003 (ip), vehicle: water): 102 % of control | T/C (dose: 100.0 mg/kg/injection, schedule: Q01DX009 (ip), vehicle: water): 94 % of control | T/C (dose: 100.0 mg/kg/injection, schedule: Q04DX003 (ip), vehicle: water): 108 % of control and 109 % of control

O=C(NNc1ccc(F)cc1)C12CC3CC(CC(C3)C1)C2
T/C [9]: 104 % of control

CCN(CC)C(=O)Cn1ccc(NC(C)=O)nc1=O
T/C [4]: 104 % of control | T/C (dose: 100.0 mg/kg/injection, schedule: Q04DX003 (ip), vehicle: saline): 95 % of control | T/C (dose: 200.0 mg/kg/injection, schedule: Q01DX009 (ip), vehicle: saline): 86 % of control | T/C (dose: 200.0 mg/kg/injection, schedule: Q04DX003 (ip), vehicle: saline): 100 % of control | T/C (dose: 400.0 mg/kg/injection, schedule: Q01DX009 (ip), vehicle: saline): 100 % of control | T/C (dose: 400.0 mg/kg/injection, schedule: Q04DX003 (ip), vehicle: saline): 100 % of control

COc1cc2c(c(OC)c1OC)-c1ccc(OC)c(=O)cc1[C@@H](NC(=O)C(F)(F)F)CC2
T/C (dose: 0.09 mg/kg/injection, schedule: Q01DX009 (ip), vehicle: Klucel (hydroxypropylcellulose) (HPC)): 155 % of control | T/C (dose: 0.18 mg/kg/injection, schedule: Q01DX009 (ip), vehicle: Klucel (hydroxypropylcellulose) (HPC)): 171 % of control | T/C (dose: 0.39 mg/kg/injection, schedule: Q01DX009 (ip), vehicle: Klucel (hydroxypropylcellulose) (HPC)): 245 % of control

CCOc1cccc(/C=N/n2c(-c3ccccc3Cl)nc3ccccc3c2=O)c1O
T/C [9]: 90 % of control | T/C [10]: 87 % of control

O=C(Nc1ccc(Cc2ccc(NC(=O)Nc3nc4ccccc4s3)cc2)cc1)Nc1nc2ccccc2s1
T/C [9]: 94 % of control | T/C [10]: 89 % of control | T/C [11]: 100 % of control

C[C@]12CC[C@@H](O)C[C@H]1CC[C@@H]1[C@@H]2CC[C@]2(C)C(=O)CC[C@@H]12
T/C [10]: 90 % of control | T/C [1]: 105 % of control | T/C [11]: 90 % of control | T/C [2]: 100 % of control | T/C [12]: 90 % of control | T/C [3]: 100 % of control

CC(=O)OC1=NC(C)c2c1cc(OC(C)=O)[nH]c2=O (stereo unspecified)
T/C (dose: 6.25 mg/kg/injection, schedule: Q01DX009 (ip), vehicle: Klucel (hydroxypropylcellulose) (HPC)): 88 % of control | T/C (dose: 12.5 mg/kg/injection, schedule: Q01DX009 (ip), vehicle: Klucel (hydroxypropylcellulose) (HPC)): 96 % of control | T/C (dose: 25.0 mg/kg/injection, schedule: Q01DX009 (ip), vehicle: Klucel (hydroxypropylcellulose) (HPC)): 96 % of control | T/C [6]: 112 % of control | T/C (dose: 133.0 mg/kg/injection, schedule: Q04DX003 (ip), vehicle: Klucel (hydroxypropylcellulose) (HPC)): 121 % of control

COc1ccc(C2=NNc3n[nH]c(=S)n3N2)cc1OC
T/C [1]: 100 % of control | T/C [2]: 100 % of control | T/C [3]: 91 % of control

O=C(/C=N/O)Nc1cc(Cl)c(Cl)cc1Cl
T/C [9]: 109 % of control | T/C (dose: 50.0 mg/kg/injection, schedule: Q04DX003 (ip), vehicle: saline with Tween-80): 109 % of control | T/C (dose: 75.0 mg/kg/injection, schedule: Q01DX009 (ip), vehicle: saline with Tween-80): 113 % of control | T/C [10]: 104 % of control | T/C [1]: 100 % of control | T/C (dose: 150.0 mg/kg/injection, schedule: Q01DX009 (ip), vehicle: saline with Tween-80): 118 % of control | T/C [2]: 122 % of control
